Experimental data taken from patent US8653125B2, “Cyclohexane derivative having NPY Y5 receptor antagonism” (Shionogi Co., Ltd., priority 2009, dated 2014).

What follows are molecules tested against mouse NPY Y5 receptor (Mus musculus (Mouse), UniProt O70342) (assay: Affinity for NPY Y5 receptor (Test Example 1-1), 125I peptide YY binding). Details: inhibition of 125I peptide YY binding to membranes of CHO cells expressing mouse NPY Y5 receptor.
Text: cDNA sequence encoding mouse NPY Y5 receptor (Biochem. Biophys. Acta 1328: 83-89, 1997) was cloned in the expression vector (pME18S, Takebe et al. Mol. Cell. Biol. 8, 466-472). The obtained expression vector was transfected into CHO cells as a host according to the instruction manual using Lipofectamine reagent (Trademark, Gibco BRL Co., Ltd.). The cells that stably express NPY Y5 receptor were obtained.
The membrane samples prepared from the CHO cells expressing NPY Y5 receptor, the compound of the invention and 30,000 cpm ^125I peptide YY (60 pM of final concentration: Amersham) were incubated in the assay buffer (20 mM HEPES-Hanks buffer containing 0.1% bovine serum albumin, pH 7.4) at 25° C. for 2 hours. The membrane samples were then filtered from the mixture through a glassfilter (GF/C) presoaked with 1% polyethyleneimine. After washing with 50 mM Tris-HCl buffer (pH 7.4), radioactivity retained on the filters was determined using gamma counter. Non-specific binding was determined in the presence of 200 nM of peptide YY and the 50% inhibitory concentration (IC50 value) of the test compound for specific peptide YY binding was calculated (Inui, A. et al. Endocrinology 131, 2090-2096 (1992)).

Sequence of mouse NPY Y5 receptor (O70342 whole entry): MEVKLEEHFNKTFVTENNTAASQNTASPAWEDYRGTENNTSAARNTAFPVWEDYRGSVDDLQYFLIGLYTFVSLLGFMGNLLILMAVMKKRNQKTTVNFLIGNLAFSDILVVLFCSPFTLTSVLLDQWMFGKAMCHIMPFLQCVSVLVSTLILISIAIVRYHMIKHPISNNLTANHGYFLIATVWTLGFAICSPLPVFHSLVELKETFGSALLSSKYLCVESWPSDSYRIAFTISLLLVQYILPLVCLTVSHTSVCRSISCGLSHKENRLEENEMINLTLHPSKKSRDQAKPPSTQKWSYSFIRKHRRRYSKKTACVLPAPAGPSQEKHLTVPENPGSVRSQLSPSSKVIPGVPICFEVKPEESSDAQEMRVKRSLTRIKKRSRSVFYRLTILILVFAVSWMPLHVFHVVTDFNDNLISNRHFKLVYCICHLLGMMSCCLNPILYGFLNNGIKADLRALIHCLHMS

| Structure (SMILES) | IC50 |
| --- | --- |
| C[C@@H]1CN(c2ccc(NC(=O)[C@H]3CC[C@@H](Oc4cc(Cl)ccc4C#N)CC3)cc2)C[C@H](C)O1 [Ic-12] | 1.1 nM |
| N#Cc1ccccc1C(=O)N[C@H]1CC[C@@H](C(=O)Nc2ccn(-c3ccccc3F)n2)CC1 [Ia-24] | 2.9 nM |
| N#Cc1ccccc1O[C@H]1CC[C@@H](C(=O)Nc2ccc(OC(F)F)cc2)CC1 [Ic-8] | 2.3 nM |
| CC(C)n1c(=O)oc2cc(NC(=O)[C@H]3CC[C@@H](Oc4cc(Cl)ccc4C#N)CC3)ccc21 [Ic-13] | 0.56 nM |
| CC(C)n1c(=O)oc2cc(NC(=O)[C@H]3CC[C@@H](Oc4cc(C(F)(F)F)ccc4C#N)CC3)ccc21 [Ic-14] | 0.68 nM |
| O=C(N[C@H]1CC[C@@H](C(=O)Nc2ccc(-c3ccccc3F)cc2)CC1)c1ccon1 [Ia-30] | 0.71 nM |
| CC(C)n1c(=O)oc2cc(NC(=O)[C@H]3CC[C@@H](NC(=O)c4ccon4)CC3)ccc21 [Ia-32] | 3.3 nM |
| C[C@@H]1CN(c2ccc(NC(=O)[C@H]3CC[C@@H](Oc4cc(C(F)(F)F)ccc4C#N)CC3)cc2)C[C@H](C)O1 [Ic-11] | 1.8 nM |
| O=C(Nc1ccn(-c2ccccc2F)n1)[C@H]1CC[C@@H](N2c3ccccc3OS2(=O)=O)CC1 [Id-8] | 0.58 nM |
| O=C(Nc1ccn(-c2ccccc2F)n1)[C@H]1CC[C@@H](Oc2cc(Cl)ccn2)CC1 [Ic-17] | 0.69 nM |
| O=C(N[C@H]1CC[C@@H](C(=O)Nc2ccc(-c3ccccc3)cc2)CC1)c1ccon1 [Ia-35] | 0.65 nM |
| CC(C)n1c(=O)oc2cc(NC(=O)[C@H]3CC[C@@H](Nc4cccc(F)n4)CC3)ccc21 [Ib-4] | 1.5 nM |
| O=C(Nc1ccn(-c2ccccc2F)n1)[C@H]1CC[C@@H](Nc2cccc(F)n2)CC1 [Ib-1] | 2.9 nM |

Continued by falling IC50, values first:

| IC50 | Structure (SMILES) |
| --- | --- |
| 4.5 nM | CC(C)n1c(=O)oc2cc(NC(=O)[C@H]3CC[C@@H](NC(=O)c4ccccc4)CC3)ccc21 [Ia-15] |
| 4.1 nM | O=C(N[C@H]1CC[C@@H](C(=O)Nc2cccc(-c3ccccc3F)c2)CC1)c1ccon1 [Ia-28] |
| 4.1 nM | O=C(N[C@H]1CC[C@@H](C(=O)Nc2cccc(-c3ccccc3F)c2)CC1)c1ccccc1 [Ia-14] |
| 3.8 nM | O=C(N[C@H]1CC[C@@H](C(=O)Nc2ccn(-c3ccccc3F)n2)CC1)c1cccc(Cl)n1 [Ia-4] |
| 3 nM | O=C(N[C@H]1CC[C@@H](c2nc(-c3cccc(Cl)c3)c[nH]2)CC1)c1ccon1 [Ia-42] |
| 1.8 nM | O=C(N[C@H]1CC[C@@H](c2nc(-c3cccc(C(F)(F)F)c3)c[nH]2)CC1)c1ccon1 [Ia-43] |
| 1.6 nM | O=C(N[C@H]1CC[C@@H](C(=O)Nc2ccn(-c3ccccc3F)n2)CC1)c1cccc(F)n1 [Ia-2] |
| 1.5 nM | C[C@@H]1CN(c2ccc(NC(=O)[C@H]3CC[C@@H](Oc4cc(Cl)ccn4)CC3)cc2)C[C@H](C)O1 [Ic-5] |
| 0.41 nM | CC(C)n1c(=O)oc2cc(NC(=O)[C@H]3CC[C@@H](Oc4cc(C(F)(F)F)ccn4)CC3)ccc21 [Ic-16] |
| 0.26 nM | O=C(N[C@H]1CC[C@@H](c2nc(-c3ccc(Cl)c(Cl)c3)c[nH]2)CC1)c1ccon1 [Ia-40] |
